Where “and” joins values, the source holds several entries; their conditions need not be identical. Equal values may be shown once. Read-outs that look alike come from different tables or passages of the source.
Assays:
[1] = target: receptor tyrosine kinase c-Met (Homo sapiens, UniProt P08581); assay: In vitro c-Met kinase inhibitory activity; format: biochemical; conditions: two values per compound; for inhibition at 0.001 µM / inhibition at 0.01 µM / inhibition at 0.1 µM: read-out: c-Met Inhibitory rate (%)
Text: Experimental Example 3: Study of In Vitro c-Met Kinase Inhibitory Activity
Since the screening results of 369 kinase profiles of compound DC621044 has shown that the compound has a certain inhibitory activity on c-Met. We further screened some compounds for their inhibitory activity on c-Met kinase.

[2] = target: T1, receptor tyrosine kinase AXL (Homo sapiens, UniProt P30530); assay: Enzyme activity of receptor tyrosine kinase AXL (ELISA); format: biochemical; conditions: for inhibition at 0.001 µM: 1 nM; for inhibition at 0.001 µM / inhibition at 0.01 µM / inhibition at 0.1 µM: read-out: AXL activity Inhibitory rate(%); for inhibition at 0.01 µM: 10 nM; for inhibition at 0.1 µM: 100 nM
T1 construct: 50 μL of AXL kinase domain recombinant protein diluted in reaction buffer was added to start the reaction; made in house; host or cells: insect cells (baculovirus expression system)
T1 sequence (P30530 536-807 limits assumed): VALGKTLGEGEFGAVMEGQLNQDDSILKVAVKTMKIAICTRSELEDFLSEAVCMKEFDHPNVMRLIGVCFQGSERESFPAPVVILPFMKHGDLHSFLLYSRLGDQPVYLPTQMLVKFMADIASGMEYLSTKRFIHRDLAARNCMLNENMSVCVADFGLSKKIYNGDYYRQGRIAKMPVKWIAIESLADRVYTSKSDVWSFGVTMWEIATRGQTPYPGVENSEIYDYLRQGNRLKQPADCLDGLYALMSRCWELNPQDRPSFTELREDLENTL
Protocol: Detection method: Enzyme-linked immunosorbent assay (ELISA)
Tested receptor tyrosine kinase: AXL
The full-wavelength microplate reader for experiment reading was a product of Molecular Device, model: SpectraMax 190; the experiment water was distilled water produced by Sinopharm Group.
Compound preparation: The compounds were centrifuged at 12,000 g for 5 min, and DMSO was added to prepare a 10^−2M stock solution, vortexed evenly and sonicated for 10 min for use, and stored at −40° C. During the test, the compound was diluted from the stock solution to 100 times the tested concentration with DMSO (the DMSO concentration in the system was 1%).
1. […] Discard the liquid from the well. The plate was washed and washed three times with T-PBS (0.1% Tween-20 in potassium-free PBS, 200 μL/well) for 5 minutes each time.
2. 49 μL of ATP solution diluted with reaction buffer (50 mM HEPES pH 7.4, 50 mM MgCl2, 0.5 mM MnCl2, 0.2 mM Na3VO4, 1 mM DTT) was added to each well, and […] of the tested compound was added to each well, and then 50 μL of AXL kinase domain recombinant protein diluted in reaction buffer was added to start the reaction. Two control wells without ATP were added in each experiment. (100 rpm) Reacted in 37° C. shaker for 1 hour. Discard the liquid from the well, and the plate was washed with T-PBS for three times.
3. […] Discard the liquid from the well, and the plate was washed with T-PBS for three times.
4. The horseradish peroxidase-labeled goat anti-mouse second antibody dilution (antibody diluted 1:2000 with BSA 5 mg/mL in T-PBS), 100 μL/well, and reacted in 37° C. shaker for 0.5 hours. Discard the liquid from the well, and the plate was washed with T-PBS for three times.
6. The reaction was quenched with 50 μL/well 2M […], and read at 490 nm using a tunable microplate reader VERSAmax.
The IC50 values were obtained by four-parameter regression analysis using the software supplied with the microplate reader.

BaF3/TEL-AXL cells = assay: Proliferation of BaF3/TEL-AXL cells; format: cell-based; conditions: for inhibition at 0.001 µM / inhibition at 0.01 µM / inhibition at 0.1 µM: BaF3/TEL-AXL
Text: Experimental Example 4: Effect of the Compound on the Proliferation Effect of BaF3/TEL-AXL Cells
Based on the above-mentioned enzyme activity research results, we further explored the effect of the compound on cell proliferation mediated by receptor tyrosine kinase AXL.

[3] = 1 nM, two values per compound, 0.001 µM
[4] = 10 nM, two values per compound, 0.01 µM
[5] = 100 nM, two values per compound, 0.1 µM
[6] = 1 nM, two values per compound, read-out: BaF3/TEL-AXL proliferation Inhibitory rate (%)
[7] = 10 nM, two values per compound, read-out: BaF3/TEL-AXL proliferation Inhibitory rate (%)
[8] = 100 nM, two values per compound, read-out: BaF3/TEL-AXL proliferation Inhibitory rate (%)
[9] = concentration of 1 nM, read-out: inhibited the proliferation of BaF3/TEL-AXL cells

Sequence of receptor tyrosine kinase c-Met (P08581 25-1390): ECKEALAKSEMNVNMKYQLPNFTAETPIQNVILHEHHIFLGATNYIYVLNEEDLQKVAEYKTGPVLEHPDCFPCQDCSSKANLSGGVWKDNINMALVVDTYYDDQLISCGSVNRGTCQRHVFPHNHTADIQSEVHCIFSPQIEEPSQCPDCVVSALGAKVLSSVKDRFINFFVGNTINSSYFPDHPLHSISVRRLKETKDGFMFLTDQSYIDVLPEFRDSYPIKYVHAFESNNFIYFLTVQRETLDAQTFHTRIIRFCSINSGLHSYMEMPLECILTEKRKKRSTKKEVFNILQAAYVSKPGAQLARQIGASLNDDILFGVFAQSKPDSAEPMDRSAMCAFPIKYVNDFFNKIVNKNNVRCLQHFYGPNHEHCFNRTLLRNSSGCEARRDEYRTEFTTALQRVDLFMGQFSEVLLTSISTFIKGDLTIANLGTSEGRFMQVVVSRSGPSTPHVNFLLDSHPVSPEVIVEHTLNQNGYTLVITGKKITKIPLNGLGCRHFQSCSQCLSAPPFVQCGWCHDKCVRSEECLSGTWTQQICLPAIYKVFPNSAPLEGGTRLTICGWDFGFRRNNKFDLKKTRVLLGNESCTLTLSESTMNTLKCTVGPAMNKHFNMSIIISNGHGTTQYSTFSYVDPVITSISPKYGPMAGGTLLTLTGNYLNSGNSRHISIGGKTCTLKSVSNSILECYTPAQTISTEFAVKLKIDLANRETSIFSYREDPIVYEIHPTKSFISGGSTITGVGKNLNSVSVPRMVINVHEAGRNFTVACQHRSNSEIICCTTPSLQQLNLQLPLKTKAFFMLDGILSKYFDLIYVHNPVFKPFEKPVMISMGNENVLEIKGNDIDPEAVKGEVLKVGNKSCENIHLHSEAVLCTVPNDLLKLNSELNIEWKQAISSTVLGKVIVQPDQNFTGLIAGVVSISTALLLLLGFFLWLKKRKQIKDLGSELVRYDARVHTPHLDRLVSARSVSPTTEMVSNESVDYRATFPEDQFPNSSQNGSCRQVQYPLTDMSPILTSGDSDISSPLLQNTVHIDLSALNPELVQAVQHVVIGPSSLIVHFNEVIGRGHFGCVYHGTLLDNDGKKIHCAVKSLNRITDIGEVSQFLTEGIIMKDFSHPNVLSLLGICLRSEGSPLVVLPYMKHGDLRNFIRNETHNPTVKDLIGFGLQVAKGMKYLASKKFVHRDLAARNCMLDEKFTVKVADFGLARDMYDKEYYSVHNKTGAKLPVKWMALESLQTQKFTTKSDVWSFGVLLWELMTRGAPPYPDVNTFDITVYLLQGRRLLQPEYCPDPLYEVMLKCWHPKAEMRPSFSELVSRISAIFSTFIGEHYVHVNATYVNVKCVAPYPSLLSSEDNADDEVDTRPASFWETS

| Structure (SMILES) | c-Met Inhibitory rate (%) ([1]; 1 nM, 0.001 µM) | inhibition at 0.001 µM ([1]; 1 nM) | c-Met Inhibitory rate (%) ([1]; 10 nM, 0.01 µM) | inhibition at 0.01 µM ([1]; 10 nM) | c-Met Inhibitory rate (%) ([1]; 100 nM, 0.1 µM) | inhibition at 0.1 µM ([1]; 100 nM) | IC50 [2] | inhibition at 0.001 µM [2] | inhibition at 0.01 µM [2] | inhibition at 0.1 µM [2] | BaF3/TEL-AXL proliferation Inhibitory rate (%) (BaF3/TEL-AXL cells; [3]) | BaF3/TEL-AXL proliferation Inhibitory rate (%) (BaF3/TEL-AXL cells; [4]) | BaF3/TEL-AXL proliferation Inhibitory rate (%) (BaF3/TEL-AXL cells; [5]) | inhibition at 0.001 µM (BaF3/TEL-AXL cells; [6]) | inhibition at 0.01 µM (BaF3/TEL-AXL cells; [7]) | inhibition at 0.1 µM (BaF3/TEL-AXL cells; [8]) | inhibition at 0.001 µM (BaF3/TEL-AXL cells; [9]) |
| --- | --- | --- | --- | --- | --- | --- | --- | --- | --- | --- | --- | --- | --- | --- | --- | --- | --- |
| COCCOc1cc2ncnc(Oc3ccc(NC(=O)c4c5n(n(-c6cc(F)ccc6F)c4=O)CCCC5)cc3F)c2cc1OCCOC [DC621024, 1-(2,5-difluorophenyl)-N-(4-((6,7-bis(2-methoxyethoxy)quinazolin-4-yl)oxy)-3-fluorophenyl)-2-oxo-1,2,4,5,6,7-hexahydropyrazolo[1,5-a]pyridine-3-formamide] | 53.5% | 40.5% | 80.5% | 66.8% | 100% | 99.4% | 8.7 ± 1 nM | 29.9% | 72.5% | 100% | 75.0% | 80.5% | 81.3% | 79.8% | 81% | 85% | > 70% |
| COCCOc1cc2ncnc(Oc3ccc(NC(=O)c4c5n(n(-c6ccccc6)c4=O)CCCC5)c(F)c3)c2cc1OCCOC [DC621051, N-(4-((6,7-bis(2-methoxyethoxy)quinazolin-4-yl)oxy)-2-fluorophenyl)-2-oxo-1-phenyl-1,2,4,5,6,7-hexahydropyrazolo[1,5-a]pyridine-3-formamide] | 55.2% | 39.5% | 75.9% | 62.4% | 97.5% | 93.9% |  | 8.2% | 54.2% | 100% | 82.9% | 85.9% | 86.6% | 84.7% | 85.8% | 86.7% | > 70% |
| COCCOc1cc2ncnc(Oc3ccc(NC(=O)c4c5n(n(-c6cc(F)ccc6F)c4=O)CCCC5)c(F)c3)c2cc1OCCOC [DC621054, 1-(2,5-difluorophenyl)-N-(4-((6,7-bis(2-methoxyethoxy)quinazolin-4-yl)oxy)-2-fluorophenyl)-2-oxo-1,2,4,5,6,7-hexahydropyrazolo[1,5-a]pyridine-3-formamide] | 60.0% | 61.1% | 48.9% and 69.6% |  | 100% | 94.1% |  | 12.2% | 58.2% | 95.9% | 81.8% | 82.5% | 86.1% | 79.6% | 82.8% | 84.7% |  |
| COCCOc1cc2ncnc(Oc3ccc(NC(=O)c4c5n(n(-c6ccccc6F)c4=O)CCCC5)c(F)c3)c2cc1OCCOC [DC621057, N-(4-((6,7-bis(2-methoxyethoxy)quinazolin-4-yl)oxy)-2-fluorophenyl)-1-(2-fluorophenyl)-2-oxo-1,2,4,5,6,7-hexahydropyrazolo[1,5-a]pyridine-3-formamide] | 51.3% | 34% | 64.0% | 55.2% | 95.9% | 94.6% |  | 16% | 55.1% | 91.9% | 76.6% |  | 86.0% | 69.5% | 83.2% | 87.5% |  |
| COCCOc1cc2ncnc(Oc3ccc(NC(=O)c4c5n(n(-c6ccc(F)cc6)c4=O)CCCC5)c(F)c3)c2cc1OCCOC [DC621060, N-(4-((6,7-bis(2-methoxyethoxy)quinazolin-4-yl)oxy)-2-fluorophenyl)-1-(4-fluorophenyl)-2-oxo-1,2,4,5,6,7-hexahydropyrazolo[1,5-a]pyridine-3-formamide] |  |  | 58.1% | 43.9% | 95.4% | 91.9% |  | 21.5% | 54.4% | 84.2% | 66.3% | 73.4% | 85.3% | 64.5% | 71% | 85.4% |  |
| O=C(Nc1ccc(Oc2ncnc3cc4c(cc23)OCCOCCOCCO4)c(F)c1)c1c2n(n(-c3cc(F)ccc3F)c1=O)CCCC2 [DC621063, 1-(2,5-difluorophenyl)-N-(3-fluoro-4-((7,8,10,11,13,14-hexahydro-[1,4,7,10]tetraoxacyclododecane[2,3-g]quinazolin-4-yl)oxy)phenyl)-2-oxo-1,2,4,5,6,7-hexahydropyrazolo[1,5-a]pyridine-3-formamide] | 32.4% | 17.7% | 56.2% | 46.4% | 99.2% | 94.8% |  | 11.5% | 60.5% | 91.8% | 61.0% | 66.0% | 78.2% | 47.8% | 67.2% | 82.3% |  |
| O=C(Nc1ccc(Oc2ncnc3cc4c(cc23)OCCOCCOCCO4)c(F)c1)c1c2n(n(-c3ccc(F)cc3)c1=O)CCCC2 [DC621067, N-(3-fluoro-4-((7,8,10,11,13,14-hexahydro-[1,4,7,10]tetraoxacyclododecane [2,3-g]quinazolin-4-yl)oxy)phenyl)-1-(4-fluorophenyl)-2-oxo-1,2,4,5,6,7-hexahydropyrazolo[1,5-a]pyridine-3-formamide] |  |  |  |  |  |  |  | 8.6% | 54.5% | 89% | 74.8% | 85.4% | 83.0% | 80.6% | 87.2% | 80.8% |  |
| COCCOc1cc2ncnc(Oc3ccc(NC(=O)c4c5n(n(-c6ccc(F)cc6)c4=O)CCCC5)cc3Cl)c2cc1OCCOC [DC621100, N-(4-((6,7-bis(2-methoxyethoxy)quinazolin-4-yl)oxy)-3-chlorophenyl)-1-(4-fluorophenyl)-2-oxo-1,2,4,5,6,7-hexahydropyrazolo[1,5-a]pyridine-3-formamide] |  |  | 63.7% and 38.0% |  | 89.1% | 94.4% |  | 18.9% | 59.2% | 93% |  |  |  |  |  |  |  |

From US12497394B2, “Fused-cyclic pyrazolone formamide compound and preparation method therefor, pharmaceutical composition and use thereof” (SHANGHAI INSTITUTE OF MATERIA MEDICA, CHINESE ACADEMY OF …, priority 2018, dated 2025)
